Test results: PMC5571359, “Screening the Medicines for Malaria Venture Pathogen Box across Multiple Pathogens Reclassifies Starting Points for Open-Source Drug Discovery” (Antimicrobial Agents and Chemotherapy, 2017)
Like-named read-outs stand apart in the source and are kept apart here.

What was measured:
[1] = tested on: T. b. brucei 427 bloodstream trypanosomes; experiment: T. b. brucei resazurin viability assay; assay type: cell-based, Trypanosoma brucei brucei
[2] = tested on: T. cruzi C4 β-galactosidase reporter parasite in MRC 5SV2 host cells; details: cited from earlier work
T. brucei brucei = details: ref Pbox supporting information, cited from earlier work
T. brucei rhodesiense = details: ref Pbox supporting information, cited from earlier work; for IC50: read-out: T .b. rohdensie Pbox IC50
[3] = tested on: L. infanium (macrophages); parameters: method as in Pbox supporting information; details: ref Pbox supporting information; cited from earlier work
HEK293 cells = experiment: HEK293 resazurin cell cytotoxicity assay; details: for IC50 / inhibition at 20 µM: Homo sapiens
[4] = tested on: T. cruzi intracellular amastigotes; experiment: Intracellular anti-Trypanosoma cruzi image-based assay (amastigotes); assay type: cell-based; details: for IC50 / Emax: Trypanosoma cruzi; for Emax: PBox kinetoplastid set compounds active against T. cruzi alone, read-out: Emax against T. cruzi (subefficacious effect)
[5] = tested on: NF54-pfs16-LUC-GFP stage IV gametocytes; experiment: Plasmodium falciparum late stage gametocyte (LSG) image-based assay; assay type: cell-based
HepG2 = details: cited from earlier work
[6] = tested on: Plasmodium falciparum 3D7 asexual blood stage; experiment: microbe, parasite or virus in culture
[7] = Trypanosoma brucei; read-out: T b.brucei Discovery Biology IC50
[8] = ref Pbox supporting information, read-out: T. cruzi Pbox IC50
[9] = read-out: T.b. brucei Pbox IC50
[10] = HEK293, read-out: HEK % Inhibition 20uM/IC50 Discovery Biology
[11] = intracellular amastigotes, read-out: T cruzi Discovery Biology IC50
[12] = HepG2, ref PBox supporting information
[13] = 3D7, read-out: Antiplasmodial IC50 (ABS), PBox compounds, P. falciparum 3D7
[14] = PBox compounds, intracellular amastigotes, 48 h exposure, read-out: IC50 T. cruzi (Discovery Biology)
[15] = Trypanosoma brucei; PBox compounds; read-out: IC50 T. brucei brucei (Discovery Biology)
[16] = 7 days exposure, ref PBox supporting information, read-out: T. cruzi IC50 in the PBox supporting information file
[17] = Plasmodium falciparum, NF54, read-out: Antiplasmodial IC50 (GAM / LSG), PBox compounds, stage IV gametocytes, single determination

SMILES	IC50 [1, 7]	IC50 [2, 8]	IC50 (T. brucei brucei; [9])	IC50 (T. brucei rhodesiense)	IC50 [3]	IC50 (HEK293 cells; [10])	IC50 [4, 11]	HepG2 PBox CC20 (HepG2; [12])	further results
CNC(=O)C1Cc2ccccc2N1C(=O)Cc1ccc(F)cc1 (stereo not drawn) [MMV188296]	1470 nM	> 64000 nM	490 nM	380 nM	> 64000 nM	> 20000 nM	–	–	–
NCCN(C(=O)c1ccc(Cl)cc1Cl)c1ccc(OCc2ccc(Cl)cc2)cc1 [MMV688371]	240 nM	620 nM	< 130 nM	< 130 nM	630 nM	> 20000 nM	4350 nM	–	activity against T. brucei rhodesiense (T. brucei rhodesiense): demonstrated activity
O=C(NCCc1ccn(-c2ccccc2)n1)C1CCCCC1 [MMV688795]	270 nM	740 nM	150 nM	< 130 nM	> 64000 nM	> 20000 nM	930 nM	–	–
COc1cc(C2=NCCN2)cc2cc(-c3ccc(C4=NCCN4)cc3)oc12 [MMV688362]	–	13300 nM	14500 nM	780 nM	> 32000 nM	> 20000 nM	–	14300 nM	IC50 ([5]; Plasmodium falciparum, NF54, read-out: Pf Stage IV GAMS Discovery Biology IC50, stage IV gametocytes): 6670 nM; IC50 [6, 13]: 590 nM
CCCCN(CCCC)c1c(C#N)cc(S(=O)(=O)Nc2ccccc2)cc1C#N [MMV688467]	1150 nM	820 nM	260 nM	240 nM	13600 nM	> 20000 nM	–	11900 nM	IC50 [4, 14]: 3980 nM
CS(=O)(=O)c1ccccc1C(=O)N(Cc1ccccc1)c1ccccc1 [MMV688798]	500 nM	35400 nM	560 nM	400 nM	> 64000 nM	> 20000 nM	–	–	–
c1ccc(Oc2ccc(-c3cc(N4CCNCC4)[nH]n3)cc2)cc1 [MMV687706]	5050 nM	4480 nM	990 nM	970 nM	4060 nM	> 20000 nM	–	6400 nM	–
CC1CCCCN1C(=O)NCCc1coc(-c2ccc(F)cc2)n1 (stereo not drawn) [MMV688797]	130 nM	480 nM	130 nM	110 nM	> 64000 nM	> 20000 nM	370 nM	–	–
CC(C)(C)C(O)C(Oc1ccc(-c2ccccc2)cc1)n1cncn1 (stereo not drawn) [MMV688942, Bitertanol]	–	55 nM	32900 nM	28000 nM	> 64000 nM	> 20000 nM	80 nM	–	Emax [4]: < 100%
Cc1ccc(S(=O)(=O)Nc2ccc(CN3CCN(C(=O)c4cccc(C#N)c4)CC3)cc2)cc1 [MMV689028]	–	–	–	120 nM	32000 nM	> 20000 nM	–	–	IC50 [4, 14]: 670 nM; IC50 [1, 15]: 240 nM; IC50 [2, 16]: 1200 nM; IC50 (T. brucei brucei; read-out: T. brucei brucei IC50, PBox): 140 nM; activity against T. brucei rhodesiense (T. brucei rhodesiense): demonstrated activity
c1ccc(Oc2ccc(-c3cc(C4CCOCC4)[nH]n3)cc2)cc1 [MMV687762]	1790 nM	16400 nM	7580 nM	3770 nM	> 32000 nM	–	–	10800 nM	–
COc1ccc(C2=NCCN2)cc1-c1cn(-c2cccc(C3=NCCN3)c2)nn1 [MMV688547]	–	> 32000 nM	> 32000 nM	1630 nM	> 32000 nM	> 20000 nM	–	>80000 nM	IC50 [6, 13]: 1020 nM
Cc1nn2c(O)c3c(nc2c1-c1ccc(F)cc1)CCCC3 [MMV099637]	4430 nM	2210 nM	1940 nM	480 nM	50400 nM	> 20000 nM	–	–	–
COc1ccc(S(=O)(=O)Nc2ccc(CN3CCN(C(=O)c4cccc(C#N)c4)CC3)cc2)cc1 [MMV689029]	1080 nM	2700 nM	500 nM	400 nM	52200 nM	> 20000 nM	1390 nM	–	activity against T. brucei rhodesiense (T. brucei rhodesiense): demonstrated activity
Cc1cccnc1NC(=O)c1cccc(OCc2c(C)noc2C)c1 [MMV688793]	1160 nM	> 64000 nM	2070 nM	650 nM	> 64000 nM	> 20000 nM	–	–	IC50 [1, 15]: 1200 nM
Cc1nn(C)c(C)c1NS(=O)(=O)c1c(Cl)cc(-c2ccnc(N3CCNCC3)c2)cc1Cl [MMV688180]	–	850 nM	< 130 nM	< 130 nM	1010 nM	–	–	45.4 nM	IC50 ([4]; read-out: T cruzi Discovery Biology IC50): 2910 nM; IC50 ([1]; Trypanosoma brucei, read-out: T b.brucei Discovery Biology IC50): 10 nM; IC50 ([6]; 3D7, read-out: Pf 3D7 Discovery Biology IC50, P. falciparum 3D7 asexual blood stage): 630 nM; IC50 (HEK293 cells; HEK293, read-out: HEK % Discovery Biology IC50): 660 nM
Cc1nn2c(=O)c3c([nH]c2c1-c1ccc(Cl)cc1)CCCC3 [MMV688776]	1790 nM	720 nM	500 nM	140 nM	44000 nM	> 20000 nM	–	–	activity against T. cruzi at 8 μM in the Discovery Biology assay ([4]; 8 μM): no activity; IC50 [2, 16]: < 1000 nM
CO[C@@H]1CN(c2ccc(C#CC3(O)CN4CCC3CC4)c(Cc3ccccc3)n2)C[C@H]1O (stereo partly drawn) [MMV688415]	–	< 130 nM	16100 nM	4000 nM	17300 nM	> 20000 nM	100 nM	–	Emax [4]: < 100%; HepG2 PBox CC20 (HepG2): 38400 nM
CO[C@@H](C(=O)N1Cc2n[nH]c(NC(=O)c3ccc(N4CCN(C)CC4)cc3)c2C1)c1ccccc1 [MMV676600]	1340 nM	6480 nM	1020 nM	370 nM	4060 nM	–	–	4800 nM	inhibition at 20 µM (HEK293 cells; [10]): 45%
CC1COC(Cn2cncn2)(c2ccc(Oc3ccc(Cl)cc3)cc2Cl)O1 (stereo not drawn) [MMV688943, difenoconazole]	–	15 nM	32500 nM	26200 nM	44700 nM	> 20000 nM	100 nM	–	Emax [4]: < 100%
CCN(CC)S(=O)(=O)c1ccc(C(=O)Nc2cc(C)nn2-c2nc(C)c(C)c(=O)[nH]2)cc1 [MMV595321]	4340 nM	1960 nM	5300 nM	1700 nM	6870 nM	–	–	–	activity in the HEK293 cytotoxicity assay (HEK293 cells): comparable activity; inhibition at 20 µM (HEK293 cells; [10]): 74%
N=C(N)c1ccc(-c2cc(-c3ccccc3)on2)cc1 [MMV688514]	3530 nM	4040 nM	4060 nM	1080 nM	2540 nM	> 20000 nM	–	2600 nM	–
CCc1ccccc1-n1c(C)cn2c3c(=O)n(C(C(=O)OC)C(C)C)c(=O)n(C)c3nc12 (stereo not drawn) [MMV688550]	130 nM	990 nM	< 130 nM	< 130 nM	> 32000 nM	> 20000 nM	640 nM	44300 nM	selectivity index (SI) T. cruzi versus HEK293 ([4]; HEK293): > 31; selectivity index (SI) T. brucei brucei versus HEK293 ([1]; HEK293): > 154; IC50 [6, 13]: 2480 nM
CO/N=C(\C(=O)OC)c1ccccc1CO/N=C(\C)c1cccc(C(F)(F)F)c1 [MMV688754]	–	1940 nM	33600 nM	26200 nM	> 64000 nM	> 20000 nM	–	–	IC50 [5, 17]: 140 nM; IC50 ([6]; 3D7, read-out: Antiplasmodial IC50 (ABS)): 190 nM
O=C(NCc1nnc2n1CCCCC2)c1ccc(-c2ccc(F)cc2)o1 [MMV688796]	230 nM	2070 nM	100 nM	130 nM	> 64000 nM	> 20000 nM	1520 nM	–	activity against T. brucei rhodesiense (T. brucei rhodesiense): demonstrated activity
COc1cc(C2=NCCN2)ccc1-n1cc(-c2cccc(C3=NCCN3)c2)nn1 [MMV688474]	–	> 32000 nM	> 32000 nM	3810 nM	> 32000 nM	–	–	>80000 nM	–
CC1=Nc2ccc(Cl)cc2C(O)(c2ccc(C)cc2)N1CCN1CCCCC1 (stereo not drawn) [MMV688279]	4520 nM	4040 nM	980 nM	430 nM	4060 nM	> 20000 nM	–	10000 nM	IC50 [5, 17]: 2400 nM; IC50 ([5]; read-out: Antiplasmodial IC50 (GAM / LSG), PBox compounds, stage IV gametocytes, single determination): 2350 nM; IC50 [6, 13]: 320 nM
CCC(=O)Nc1ccccc1C(=O)Nc1ccccn1 [MMV202553]	1010 nM	> 64000 nM	2460 nM	1310 nM	> 64000 nM	> 20000 nM	–	–	IC50 [1, 15]: 1000 nM
